Results from ChEMBL document CHEMBL4840371 (Bioorg Med Chem, 2021).

Experiments:
[1] = Inhibition of Escherichia coli recombinant his-tagged DHDPS using (S)-aspartate-semialdehyde as a substrate preincubated for 12 mins followed by substrate addition by UV-Vis spectrophotometer based coupled DHDPS-DHDPR assay
[2] = Aqueous solubility of the compound; type: physicochemical; conditions: buffer
HEK293 = test: Cytotoxicity against HEK293 cells assessed as reduction in cell viability measured after 48 hrs by MTT assay; type: cell-based; conditions: Homo sapiens, HEK293, 48 h
HepG2 = test: Cytotoxicity against human HepG2 cells assessed as reduction in cell viability measured after 48 hrs by MTT assay; type: cell-based; conditions: HepG2, 48 h
[3] = Inhibition of Campylobacter jejuni DHDPS using ASA as a substrate in presence of NADPH by DHDPS-DHDPR coupled assay

Structure (SMILES) | IC50 [1] [µM] | other results
COc1cccc(/C=C2\SC(=O)N(CC(=O)O)C2=O)c1 | 110 | –
O=C(O)CN1C(=O)S/C(=C\c2ccc(=O)[nH]c2)C1=O | 59 | –
COc1ccc(/C=C2\SC(=O)N(CC(=O)O)C2=O)cc1OC | 116 | –
COc1ccc(/C=C2\SC(=O)N(CC#N)C2=O)cc1 | – | solubility ([2]; read-out: solubility): < 250 µM
COc1ccc(C=C2SC(=O)N(CC(=O)O)C2=O)cc1 (mixture of isomers) | 39 | –
O=C(O)CN1C(=O)S/C(=C\c2cccs2)C1=O | 72 | EC50 (HEK293): > 500 µM; EC50 (HepG2): > 500 µM
COc1ccc(/C=C2\SC(=O)N(CC(=O)O)C2=O)cn1 | 46 | EC50 (HEK293): > 500 µM; EC50 (HepG2): > 500 µM
N#Cc1ccc(/C=C2\SC(=O)N(CC(=O)O)C2=O)cc1 | 80 | –
CSc1ccc(/C=C2\SC(=O)N(CC(=O)O)C2=O)cc1 | 125 | –
COc1ccc(/C=C2\SC(=O)N(Cc3nnn[nH]3)C2=O)cc1 | 89 | –
NCCCC[C@@](N)(CC[C@](N)(CCCCN)C(=O)O)C(=O)O | – | Ki [3]: 0.14 µM
CCOC(=O)CSC1=NC(=O)/C(=C/c2ccc(OC)cc2)S1 | – | solubility [2]: Insoluble
COc1ccc(/C=C2\SC(=O)N(CC(=O)O)C2=O)cc1 | 47 | EC50 (HEK293): > 500 µM; EC50 (HepG2): > 500 µM
COc1ccccc1/C=C1\SC(=O)N(CC(=O)O)C1=O | 71 | –
COc1cccc(/C=C2\SC(=O)N(CC(=O)O)C2=O)c1OC | 108 | –
COc1ccc(CC2SC(=O)N(CC(=O)O)C2=O)cc1 (stereo not given) | > 500 | –
CN(C)c1ccc(/C=C2\SC(=O)N(CC(=O)O)C2=O)cc1 | > 500 | –
O=C(O)CN1C(=O)S/C(=C\c2ccc3ccccc3c2)C1=O | 76 | EC50 (HEK293): 200 µM; EC50 (HepG2): 200 µM
O=C(O)CN1C(=O)S/C(=C\c2cccnc2)C1=O | 138 | –
COc1ccc(/C=C2\SC(=O)NC2=O)cc1 | 71 | EC50 (HEK293): 172 µM; EC50 (HepG2): 200 µM
O=C(O)CN1C(=O)S/C(=C\c2ccc(OCc3ccccc3)cc2)C1=O | 71 | EC50 (HEK293): 200 µM; EC50 (HepG2): 200 µM
O=C(O)CN1C(=O)S/C(=C\c2ccc(O)cc2)C1=O | 103 | –
O=C(O)CN1C(=O)S/C(=C\c2ccccc2)C1=O | 80 | –
COc1ccc(/C=C2\SC(=O)N(CCCC(=O)O)C2=O)cc1 | 67 | –
COc1ccc(/C=C2\SC(=O)N(CC(N)=O)C2=O)cc1 | – | solubility ([2]; read-out: solubility): < 31 µM
CC(=O)Nc1ccc(/C=C2\SC(=O)N(CC(=O)O)C2=O)cc1 | 68 | –
O=C(O)CN1C(=O)S/C(=C\c2ccc3ccccc3n2)C1=O | 110 | –

Structure (SMILES) | IC50 [1] [µM] | other results
COc1ccc(/C=C2\NC(=O)NC2=O)cc1 | 124 | –
COc1ccc(/C=C2\SC(=O)N(CCC(=O)O)C2=O)cc1 | > 250 | –
O=C(O)CN1C(=O)S/C(=C\c2ccncc2)C1=O | 90 | –
O=C(O)CN1C(=O)S/C(=C\c2ccc(OC(F)(F)F)cc2)C1=O | 98 | –
O=C(O)CN1C(=O)S/C(=C\c2ccc(Br)cc2)C1=O | 74 | –
CCOc1ccc(/C=C2\SC(=O)N(CC(=O)O)C2=O)cc1 | 72 | –
O=C(O)CN1C(=O)S/C(=C\c2cccc3ccccc23)C1=O | 97 | EC50 (HEK293): > 500 µM; EC50 (HepG2): > 500 µM
COc1ccc(/C=C2\SC(=N)NC2=O)cc1 | 156 | –
O=C(O)CN1C(=O)S/C(=C\c2ccc(O)cc2O)C1=O | 162 | –
COc1ccc(/C=C2\SC(=S)NC2=O)cc1 | > 500 | –
O=C(O)CN1C(=O)S/C(=C\c2ccccn2)C1=O | 80 | –
O=C(O)CN1C(=O)S/C(=C\c2ccc(C(=O)O)cc2)C1=O | 70 | –
COc1ccc(/C=C2\NC(=O)N(CC(=O)O)C2=O)cc1 | 66 | EC50 (HEK293): > 500 µM; EC50 (HepG2): > 500 µM
O=C(O)CN1C(=O)S/C(=C\c2cccc(Cl)c2)C1=O | 121 | –
Cc1ccc(/C=C2\SC(=O)N(CC(=O)O)C2=O)cc1 | 80 | –
O=C(O)CN1C(=O)S/C(=C\c2ccsc2)C1=O | 87 | EC50 (HEK293): > 500 µM; EC50 (HepG2): > 500 µM
O=C(O)CN1C(=O)S/C(=C\c2ccc(O)c(Cl)c2)C1=O | 316 | –
O=C(O)CN1C(=O)S/C(=C\c2ccc(C(F)(F)F)cc2)C1=O | 122 | –
O=C(O)CN1C(=O)S/C(=C\c2ccc(F)cc2)C1=O | 92 | –
O=C(O)CN1C(=O)S/C(=C\c2ccc(Cl)cc2)C1=O | 84 | –
COc1ccc(/C=C2\NC(=S)NC2=O)cc1 | 323 | –
COc1ccc(/C=C2\NC(=S)N(CC(=O)O)C2=O)cc1 | 222 | EC50 (HEK293): > 500 µM; EC50 (HepG2): > 500 µM
O=C(O)CN1C(=O)S/C(=C\c2ccccc2Cl)C1=O | 137 | –
O=C(O)CN1C(=O)S/C(=C\c2c[nH]cn2)C1=O | 94 | –
COc1ccc(/C=C2\SC(=S)N(CC(=O)O)C2=O)cc1 | 540 | EC50 (HEK293): 200 µM; EC50 (HepG2): 200 µM
Nc1ccc(/C=C2\SC(=O)N(CC(=O)O)C2=O)cc1 | 153 | –
